# Measurements published in paper PMC12040169 (PLOS Biology, 2025).
# Experiment: in vitro
# Details: human, hela cells, % viability
row,SMILES,"viability at 28.5 h, 10 µM [%]"
1,O=C1CC(N2CCN(C/C=C/c3ccccc3)CC2)C(=O)N1CCc1ccccc1 (stereo not shown) [CBK262082],83.6
2,COc1ccc(Nc2nc(-c3cccc(N)c3)cnc2N)cc1 [CBK063585],95.9
3,Cc1noc(C)c1S(=O)(=O)Nc1ccc(C(=O)Nc2ccc(F)cc2)cc1 [CBK034410],95.1
4,O=C(CSC1c2ccccc2Sc2ccccc21)Nc1ccc(C(=O)O)cc1 [CBK267542],111
5,CCN(CC)c1c(C)nc2ccc(C(=O)NC3CCN(C)CC3)cn12 [CBK145965],98.7
6,C[C@H]1CN2C[C@H](O)CC2CN1Cc1ccc(Br)s1 (stereo partly shown) [CBK285439],96.1
7,CC(C)(C)c1cc(C[C@H]2CNCC[C@H]2CC(=O)Nc2nccs2)no1 [CBK288798],81
8,Cc1cnc2c(c1)cc(C1CCOCC1)n2CC(=O)NC1CCCC1 [CBK284755],103
9,O=[N+]([O-])c1ccc(NCCCNS(=O)(=O)c2ccc3ccccc3c2)c(Cl)c1 [CBK262006],79.3
10,CCC(C)(C)c1ccc(S(=O)(=O)N2CCCN(Cc3ccc4cccc(O)c4n3)CC2)cc1 [CBK063051],90.5
11,Cc1ncc(CN(C)C(C)C(=O)Nc2ccccc2N2CCCC2=O)s1 (stereo not shown) [CBK298274],92
12,CN(C)S(=O)(=O)c1ccc(C(=O)C2=C(O)C(=O)N(Cc3cccnc3)C2c2ccccc2)cc1 (stereo not shown) [CBK264667],100
13,CCN(C(=O)Cn1c(C)cc(=O)c2ccccc21)C1CCOC(C)(C)C1 (stereo not shown) [CBK306797],93.6
14,O=C(NC1CCc2ccccc21)N1CCN(CCc2ccccc2)CC1 (stereo not shown) [CBK158936],96.1
15,CCN1CCN(c2ccc(NC(=O)Cn3cnc4c(=O)n(C)c(=O)n(C)c43)cc2Cl)CC1 [CBK269535],94.3
16,c1ccc(CCNc2nc(-c3cccs3)cn3ccnc23)nc1 [CBK066633],101
17,Cn1c(=O)[nH]c(=O)c2c1nc(Sc1ncccn1)n2CCCc1ccccc1 [CBK269282],86.3
18,Cc1ccc2c(N)c(C(=O)c3cccs3)sc2n1 [CBK115369],92.5
19,COc1ccc(C(=O)N2CCC3(CCCN(Cc4nc5ccccc5[nH]4)C3)C2)cc1OC (stereo not shown) [CBK132847],93.9
20,CCc1nc2c(Oc3nc4ccccc4s3)cccn2c1N(C=O)Cc1ccc(OC)cc1 [CBK147819],107
21,CN(C)C(=O)CN1N=C(C(C)(C)C)Cn2c(cc3ccccc32)C1=O [CBK284210],81.8

row,SMILES,"viability at 28.5 h, 10 µM [%]"
1,CC1CCCN(C(=O)CN2C3CCC2CC(O)(c2ccco2)C3)C1 (stereo not shown) [CBK284095],98.8
2,CC(C)C[C@@H]1NC(=O)C2(C/C=C/C[C@@H]3COCC[C@@H]3NC1=O)CCN(C(=O)[C@H](CO)NC(=O)OCc1ccccc1)CC2 [CBK292191],102
3,O=C(Nc1ccc(C2(c3ccc(NC(=O)c4cccc5ccccc45)cc3)c3ccccc3-c3ccccc32)cc1)c1cccc2ccccc12 [CBK261163],102
4,O=C(O)CNS(=O)(=O)c1cc(Br)c(Cl)s1 [CBK034455],114
5,Cc1nccn1CC1CCCN(Cc2nc3ccccc3n2C)C1 (stereo not shown) [CBK281975],110
6,CC(C)(O)C#Cc1ccc(C(=O)NCCCNC(=O)c2ccc(C#CC(C)(C)O)s2)s1 [CBK267142],93.8
7,COc1ccc(CNC(=O)C2CCCN(c3nc4c(-c5ccc(C)cc5)csc4c(=O)[nH]3)C2)cc1 (stereo not shown) [CBK215530],112
8,OC(c1cccs1)C1CCN(Cc2cnn(-c3ccccc3)c2)CC1 (stereo not shown) [CBK307290],105
9,Cc1ccc(C(CC(=O)O)NC(=O)c2ccc(S(=O)(=O)N3CCCC(C)C3)cc2)cc1 (stereo not shown) [CBK295345],95.7
10,CCOC(=O)C1CCCCN1Cc1ccc(O)c(OC)c1 (stereo not shown) [CBK261541],96.9
11,CCn1nc(C)c(C(C)NC(=O)c2ccnn2C(F)F)c1C (stereo not shown) [CBK281535],88.4
12,CC(Nc1oc(-c2ccco2)nc1S(=O)(=O)c1ccc(F)cc1)c1ccccc1 (stereo not shown) [CBK267671],73.2
13,O=C(N/N=C/c1ccccc1)c1ccccn1 [CBK261640],92.8
14,CCOC(=O)C1=C(CSc2nc3ccccc3[nH]2)NC(=O)NC1c1cccc([N+](=O)[O-])c1 (stereo not shown) [CBK268889],96.2
15,CCn1c(SCC(=O)Nc2ccccc2[N+](=O)[O-])nnc1-c1cc(Br)ccc1O [CBK268201],101
16,NC(=O)C1(Cc2ccccc2-c2ccccc2)CCN(C(=O)CCc2ccccc2)CC1 [CBK285595],107
17,O=C1OCCN1CCN1CCCN(Cc2ccc(F)cc2)CC1 [CBK304023],103
18,COc1cc(NC(=O)c2cccnc2)c(Cl)cc1NC(=O)c1ccc(Cl)cc1 [CBK033522],98.2
19,O=C(Nc1cccnc1)c1cnc(-c2ccc(Cl)cc2)c(-c2cccnc2)c1 [CBK037568],102
20,O=c1[nH]c2ncc(-c3cccc4cccnc34)nc2n1C1CCCCC1 [CBK064215],96
21,CC(C)Nc1nc2ccccc2nc1SCCOc1ccccc1 [CBK103668],89.8

row,SMILES,"viability at 28.5 h, 10 µM [%]"
1,CO[C@@H]1CO[C@H]2[C@@H]1OC[C@@H]2Nc1nccc(-c2cccc(C#N)c2)n1 [CBK289532],79.8
2,O=S(=O)(Cc1ccc(Cl)cc1)N1CCN(Cc2ccc3c(c2)OCO3)CC1 [CBK074827],101
3,CCOC(=O)COc1ccc(S(=O)(=O)N2CCN(Cc3ccc4c(c3)OCO4)CC2)cc1 [CBK074492],101
4,CCCNC(c1ccccc1)c1ccncc1 (stereo not shown) [CBK028505],96.7
5,FC(F)(F)c1ccc(N2CCNCC2)nc1OCc1ccccc1COc1ccccc1 [CBK003965A],91.9
6,Nc1nc(OCCOc2ccccc2)cnc1-c1ccsc1 [CBK145163],109
7,CCC(C)(C)c1ccc(S(=O)(=O)NCc2ccc(C(F)(F)F)cc2)cc1 [CBK044820],107
8,C[C@@H]1CN(C(=O)c2cncn2C)C[C@H](C)O1 [CBK200370],90.3
9,CC[C@H](Cn1c(=O)oc2ccccc21)NC(=O)c1cccs1 [CBK284540],80.7
10,O=C(Nc1ccccc1)N(O)CC(O)COc1ccccc1 (stereo not shown) [CBK288399],90.7
11,O=C(CN1CCC(C(O)C(=O)NC2CC2)CC1)Nc1cc(Cl)ccc1F (stereo not shown) [CBK305477],93.4
12,CN(C)c1ccc(CC(=O)N2CCCc3ccccc32)cc1 [CBK200347],83.6
13,CCCN[C@@H]1CCc2cc(CNC(=O)c3ccc(C#N)cc3)ccc2C1 [CBK010211C],101
14,COc1ccc(S(=O)(=O)N2Cc3ccccc3CC2C(=O)Nc2sc3c(c2C#N)CCCC3)cc1 (stereo not shown) [CBK266363],116
15,CS(=O)(=O)N1CCCCCC1c1cc(-c2cccs2)on1 (stereo not shown) [CBK284670],85.5
16,Cc1nc(CCN2CCN(c3ccc4nccn4n3)CC2)cs1 [CBK306932],95.6
17,CC(C)NC(=O)[C@H]1CN2CCC1C[C@@H]2Cn1cc(C2(O)CCCC2)nn1 (stereo partly shown) [CBK289090],103
18,Cc1ccc(-n2ncc3c2NC(=O)N2CCN=C32)cc1 [CBK284345],85.5
19,O=[N+]([O-])c1ccc(CN2CCC(N3CCN(CCO)CC3)CC2)cc1 [CBK264621G],92.6
20,COc1cccc(C2(C(=O)N3CCc4nc[nH]c(=O)c4C3)CC2)c1 [CBK304488],83.3
21,Cc1cn2c(=O)c(C(=O)Nc3ccc(F)c(C(F)(F)F)c3)cnc2s1 [CBK287713],77.9

row,SMILES,"viability at 28.5 h, 10 µM [%]"
1,O=c1[nH]c2ncc(-c3ccc(-c4ccccc4)cc3)nc2n1Cc1cccnc1 [CBK064282],94
2,C=Cn1ncc(CN(CCCn2ccnc2)CC2CC=CCC2)c1C (stereo not shown) [CBK283219],96.8
3,COCCNC(=O)c1ccc(-n2ccnc2)c(-n2cccc2)c1 [CBK285369],85.5
4,Cc1cc(C(=O)NC(C)Cn2nc(C)cc2C)c2cccc(C)c2n1 (stereo not shown) [CBK281635],91.4
5,COc1ccc(C2(C(=O)NCCCN3CCN(C)CC3)CC2)cc1 [CBK149822],101
6,COc1ccc([C@@]23CC[C@@H](NC(=O)c4ccc(F)c(C(F)(F)F)c4)C[C@@H]2N(C)CC3)cc1OC [CBK074967T],93.6
7,Cc1cc(-c2ccc(=O)n(CCNC(=O)C3CCCCC3)n2)c(C)o1 [CBK284522],95.7
8,Nc1nonc1-c1nc2ccccc2o1 [CBK009829],91
9,CC(C)Oc1cncc(Cl)n1 [CBK113321],106
10,O=C(Cn1cnc2c(cnn2-c2ccc(F)cc2)c1=O)Nc1ccc(F)cc1F [CBK287537],89.3
11,CCn1cc(C(=O)O)c(=O)c2cc(F)c(N3CCN(C(=S)Nc4ccc(F)c(Cl)c4)CC3)cc21 [CBK267921],97.5
12,O=C(CCC(=O)c1ccccc1)Nc1cc2ccccc2c(N2CCNCC2)n1 [CBK028418T],106
13,N#Cc1cccnc1N1CCC(NC(=O)c2cccnc2)CC1 [CBK304283],103
14,COc1ccc(Cl)cc1S(=O)(=O)N1CCC(C(N)=O)(N2CCCCC2)CC1 [CBK269571],97.9
15,CCn1c(C)nnc1SCCNc1cc(C(C)C)nc2ccnn12 [CBK306829],81.4
16,CNC(=O)c1cccc(NC(=O)c2cc(-c3cccnc3)cnc2NCc2ccc3c(c2)OCO3)c1 [CBK076291],89.4
17,CCN1CCCC2(CCN(C(=O)c3ccoc3)C2)C1 (stereo not shown) [CBK132832],97.7
18,CC1CCN(Cc2ccc(-c3cn(CC(=O)NCc4ccc(Br)cc4)cn3)cc2)CC1 [CBK165969],104
19,CN(C)CC1CN(C(=O)Nc2ncc(Cc3ccccc3Cl)s2)CCO1 (stereo not shown) [CBK304107],93.6

# Same assay, conditions: human, hela cells, % viability, bulk resorufin, single well
row,SMILES,"viability at 28.5 h, 10 µM [%]"
1,CCC(=O)N(C[C@H]1CCC[C@@H]1N(C)C)c1ccc(Cl)c(Cl)c1 [CBK003408],96.5
2,Cc1cc2cc(NC(=O)CCC3C(=O)NC(=O)NC3=O)cc(Cl)c2o1 [CBK285826],93
3,C=CCN1C(=O)/C(=N\Nc2ccc(S(=O)(=O)O)cc2)C(=O)NC1=S [CBK261440],92
